Laboratory results from patent US20240299328A1, “COMPOSITIONS COMPRISING 15-HEPE AND METHODS OF TREATING AND/OR PREVENTING HEMATOLOGIC DISORDERS AND RELATED DISEASES” (Afimmune Limited, priority 2023, published 2024).

Columns and labels:
NAFLD patients = test: Phase IIa NAFLD study: OWL liver care diagnostic test; type: in vivo, human; conditions: for Change in Diagnosis (Week 16 vs. baseline): Improvement / Change in Diagnosis (Week 16 vs. baseline): Stable / Change in Diagnosis (Week 16 vs. baseline): Worsening: number of patients
Text: OWL Liver Care is a test that was developed based on the plasma lipidomics in biopsy-confirmed NASH patients and provides high predictive values. OWL Liver Care has an area under the curve (AUC) of 0.88 for distinguishing NAFLD and normal liver patients and an AUC of 0.79 for distinguishing NAFLD without steatohepatitis and NASH patients.

[1] = system: humanized sickle cell (SS) mice exposed to H/R stress; test: Humanized SCD (SS) mice exposed to hypoxia/reoxygenation (H/R) stress: blood, flow cytometry, immunoblot; type: in vivo
Procedure: Animals and design of the study: Experiments were performed on 4-5 months-old sex matched healthy control (Hba^tm1(HBA) Tow Hbb^tm3(HBG1, HBB) Tow) and SCD (Hba^tm1(HBA)Tow Hbb^tm2(HBG1.HBB*)Tow) mice. The study used 4-5 months-old mice. The sickle cell related organ damage is not so severe to generate confounding factors when the impact of H/R induced stress is evaluated. This is also corroborated by the observation of Kasztan M et al who show gender-related differences in kidney function of humanized SCD mice becoming significant after 24 weeks (6 months) of age. The size of the mouse groups was established based on studies with the same mouse model for SCD generated by us and other labs. Mice were randomly assigned to the different treatment groups and analysis. Healthy and SS mice were treated with ether vehicle (hydroxypropyl methyl cellulose, HPMC, 0.5%) or Epeleuton in HPMC 0.5% (1000 mg/kg/day) administrated by gavage for 6 weeks. […] When indicated, mice underwent a hypoxia/reoxygenation stress (H/R): 10 hours hypoxia (8% oxygen) followed by 3 hours reoxygenation (21% oxygen) to mimic acute vaso-occlusive crisis as previously described. Whole blood and organs were collected from each mouse under isoflurane anesthesia. Organs were immediately removed and divided into two portions which were either immediately frozen in liquid nitrogen or fixed in 10% formalin and embedded in paraffin for histology. Hematological parameters were evaluated with a Sysmex XN-1000 Hematology Analyzer and red cell morphology was evaluated as previously reported. Biochemical assays were performed using standard biochemical assays, as previously reported. Plasmatic Pentraxin 2 and CCL-2 and CXCL-2 were measured respectively using the Mouse Pentraxin 2/SAP Quantikine ELISA Kit and the next generation ELISA kit according to the manufacturer's instruction.
Immunoblot analysis: Packed red cells were lysed in ice-cold phosphate lysis buffer (5 mM Na2HPO4, pH 8.0, containing protease inhibitor cocktail tablets, 3 mM benzamidine final concentration, 1 mM Na3VO4 final concentration) and centrifuged 10 min at 4° C. at 12,000 g. Red cell membrane (ghost) and cytosol fractions were obtained as previously reported. Frozen lung, kidney and aorta from each studied group were homogenized and lysed with iced lyses buffer (150 mM NaCl, 25 mM bicine, 0.1% SDS, 2% Triton X-100, 1 mM EDTA, protease inhibitor cocktail tablets, 1 mM Na3VO4 final concentration) then centrifuged 30 min at 4° C. at 12,000 g. Specific antibodies used are: anti Phospho-Tyrosine (clone PY99 from SCBT, Santa Cruz, CA (dilution 1:3000, 75 μg loaded) and clone 4G10 from Merck KGaA, Darmstadt, Germany (dilution 1:1600, 75 μgr loaded)); anti Phospho (Ser536) NF-kB p65 (dilution 1:1000, 75 μg loaded) and anti NF-kB p65 (clone C22B4) (dilution 1:1000, 75 μgr loaded) from Cell Signaling Technology (Danvers, MA, USA); anti-NLRP3/NALP3 from Vinci-Biochem Srl, Vinci, Italy (dilution 1:1000, 75 μgr loaded); anti Endothelin-1 (ET-1) form AbCam, Cambridge, UK (dilution 1:1000, 75 μgr loaded); anti VCAM-1 (R and D Systems, Minneapolis, MN, USA (dilution 1:1000, 40 μgr loaded)); anti ICAM-1 (clone EP1442Y, dilution 1:1000, 75 μgr loaded, AbCam, Cambridge, UK); anti TXAS-1 (Cayman, Ann Arbor, MI, USA); anti Nrf2-phospho-S40 (Clone EP1809Y, dilution 1:1000, 75 μgr loaded, AbCam, Cambridge, UK); anti-Nrf2 (dilution 1:1000, 75 μgr loaded, AbCam, Cambridge, UK); anti Nqo1 from Santa Cruz Biotechnology, Inc, CA, USA (clone C-19; dilution 1:1000, 75 μgr/μl loaded); anti-heme oxygenase 1(HO-1) form SCBT (Santa Cruz, CA, USA (dilution 1:1000, 50 μgr loaded); E-selectin (H-300) (dilution 1:1000, 75 μgr loaded); anti GAPDH from SCBT (Santa Cruz, CA, USA (dilution 1:5000, 50 μgr loaded)); anti Actin from SCBT (Santa Cruz, CA, USA (clone 2A3, dilution 1:1000, 50 μgr/loaded)). […]

[2] = 0.5% HPMC vehicle; same preparation and storage conditions; concentrations bracketing those used; cited from earlier work
[3] = 1 g DS102 arm, OWL baseline diagnosis NASH
[4] = 1 g DS102 arm, OWL baseline diagnosis No NAFLD
[5] = 1 g DS102 arm, OWL baseline diagnosis Steatosis
[6] = 2 g DS102 arm, OWL baseline diagnosis NASH
[7] = 2 g DS102 arm, OWL baseline diagnosis No NAFLD
[8] = 2 g DS102 arm, OWL baseline diagnosis Steatosis
[9] = H/R, 1000 mg/Kg/d for 6 weeks, vs vehicle
[10] = H/R, 1000 mg/Kg/day for 6 weeks

CC/C=C\C[C@H](O)/C=C/C=C\C/C=C\C/C=C\CCCC(=O)OCC [DS102, 15(S)-hydroxy-(5Z,8Z,11Z,13E,17Z)-eicosapentaenoic acid ethyl ester]
Change in Diagnosis (Week 16 vs. baseline): Improvement (NAFLD patients; [3]): 5 | Change in Diagnosis (Week 16 vs. baseline): Stable (NAFLD patients; [3]): 14 | Change in Diagnosis (Week 16 vs. baseline): Stable (NAFLD patients; [4]): 3 | Change in Diagnosis (Week 16 vs. baseline): Worsening (NAFLD patients; [4]): 1 | Change in Diagnosis (Week 16 vs. baseline): Stable (NAFLD patients; [5]): 2 | Change in Diagnosis (Week 16 vs. baseline): Worsening (NAFLD patients; [5]): 3 | Change in Diagnosis (Week 16 vs. baseline): Improvement (NAFLD patients; [6]): 5 | Change in Diagnosis (Week 16 vs. baseline): Stable (NAFLD patients; [6]): 7 | Change in Diagnosis (Week 16 vs. baseline): Stable (NAFLD patients; [7]): 2*, ** | Change in Diagnosis (Week 16 vs. baseline): Worsening (NAFLD patients; [7]): 1 | Change in Diagnosis (Week 16 vs. baseline): Improvement (NAFLD patients; [8]): 1 | Change in Diagnosis (Week 16 vs. baseline): Stable (NAFLD patients; [8]): 9 | Change in Diagnosis (Week 16 vs. baseline): Worsening (NAFLD patients; [8]): 4 | OWL liver care diagnosed NASH (NAFLD patients; NAFLD patients, dose dependent, vs placebo at Week 16): significantly improved and normalized | spleen macrophage classic inflammatory markers (CD80, CD68) ([1]; 1000 mg/Kg/day for 6 weeks, vs vehicle): significant reduction | H/R induced increase in NLRP3, VCAM-1, ET-1 and TXAS-1 expression in kidney ([1]; H/R, 1000 mg/Kg/d for 6 weeks): reduction | NLRP3 inflammasome in lung tissue ([1]; H/R, 1000 mg/Kg/d for 6 weeks): downregulation | VCAM-1 in livers ([1]; H/R, 1000 mg/Kg/d for 6 weeks): prevented the H/R induced up-regulation | activation of NF-kB p65 and Nrf2 in liver ([1]; H/R, 1000 mg/Kg/d for 6 weeks): reduced activation | active forms of NF-kB p65 induced by H/R in lung ([1]; H/R, 1000 mg/Kg/d for 6 weeks): significant decrease | antioxidants NQO1 and HO-1 in liver ([1]; H/R, 1000 mg/Kg/d for 6 weeks): downregulation | expression of NLRP3 in livers ([1]; H/R, 1000 mg/Kg/d for 6 weeks): lower expression | liver protein oxidation ([1]; H/R, 1000 mg/Kg/d for 6 weeks): marked reduction | ET-1 in livers [1, 9]: trend towards reduction | H/R induced activation of NF-kB p65 in kidneys [1, 9]: decreased | H/R induced expression of VCAM-1 in isolated aorta [1, 9]: significant reduction | H/R-induced increases in creatinine and BUN plasma values [1, 9]: reduction | leukocyte infiltrates in kidneys (flow cytometry) [1, 9]: significant reduction | H/R-induced increase in neutrophil counts [1, 10]: significantly reduced | amount of sickled red blood cells [1, 10]: decreased | hematocrit (Hct) and hemoglobin (Hb) [1, 10]: prevented the H/R induced reduction | plasma C reactive protein (CRP) and pentraxin-2 [1, 10]: decreased | spleen neutrophils ([1]; H/R, 1000 mg/Kg/day for 6 weeks, vs vehicle): significant decrease | lactate dehydrogenase (LDH) ([1]; H/R, plasma, 1000 mg/Kg/day for 6 weeks): reduction | tyrosine phosphorylation state of band 3 ([1]; H/R, red cell membrane, 1000 mg/Kg/day for 6 weeks): reduction | clearance of damaged RBCs ([1]; spleen macrophages, 1000 mg/Kg/day for 6 weeks, vs vehicle): trend towards reduction | stability of the test item in the vehicle [2]: stable
